The compounds below were run against T1, hFXR (Homo sapiens, UniProt Q96RI1) (assay: In Vitro FXR Assay (TK): TK-ECRE-luc reporter in transfected CV-1 cells). Settings: 18 hrs, luminescence, maximum efficacy of <25% of the Fexarmine control classified as '+'.
T1 construct: expressed in transfected cells; host or cells: CV-1 cells
T1 sequence (Q96RI1 1-486): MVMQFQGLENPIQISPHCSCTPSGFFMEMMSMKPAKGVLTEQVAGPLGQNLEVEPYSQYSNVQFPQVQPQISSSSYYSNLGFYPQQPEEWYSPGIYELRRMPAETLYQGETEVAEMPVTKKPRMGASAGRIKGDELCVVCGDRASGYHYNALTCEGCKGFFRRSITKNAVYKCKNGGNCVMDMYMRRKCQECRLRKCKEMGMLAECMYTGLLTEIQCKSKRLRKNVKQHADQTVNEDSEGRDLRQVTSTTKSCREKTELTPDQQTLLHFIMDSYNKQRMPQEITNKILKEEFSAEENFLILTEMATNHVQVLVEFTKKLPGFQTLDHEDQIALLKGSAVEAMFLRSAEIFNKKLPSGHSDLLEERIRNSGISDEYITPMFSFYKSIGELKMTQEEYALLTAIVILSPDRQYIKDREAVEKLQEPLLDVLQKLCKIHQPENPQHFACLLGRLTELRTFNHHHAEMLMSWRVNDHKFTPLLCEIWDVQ
T1 sequence (P19793 1-462 partner): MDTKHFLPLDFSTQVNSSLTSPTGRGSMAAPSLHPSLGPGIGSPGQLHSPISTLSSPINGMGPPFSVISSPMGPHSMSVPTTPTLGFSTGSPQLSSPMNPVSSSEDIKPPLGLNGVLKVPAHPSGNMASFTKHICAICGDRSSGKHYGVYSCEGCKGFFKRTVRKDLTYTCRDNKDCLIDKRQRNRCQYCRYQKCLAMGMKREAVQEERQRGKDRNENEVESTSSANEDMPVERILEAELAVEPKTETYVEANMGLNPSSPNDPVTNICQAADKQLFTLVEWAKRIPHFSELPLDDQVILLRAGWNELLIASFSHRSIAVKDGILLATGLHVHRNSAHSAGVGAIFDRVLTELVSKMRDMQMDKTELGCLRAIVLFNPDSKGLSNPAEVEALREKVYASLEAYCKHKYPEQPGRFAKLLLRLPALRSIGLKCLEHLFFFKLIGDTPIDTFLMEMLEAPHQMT
Type: cell-based
Description: CV-1 cells were seeded at a density of 2,000,000 cells in a T175 flask with DMEM+10% charcoal double-stripped FBS and incubated at 37° C. in 5% CO2 for 18 h (O/N).
After 18 h of incubation, the medium in the T175 flask was changed with fresh DMEM+10% charcoal super-stripped serum. In a polypropylene tube, 2500 μL OptiMEM (Life Technologies, Cat #31985-062) was combined with expression plasmids for hFXR, hRXR, TK-ECRE-luc and pCMX-YFP. The tube was then briefly vortexed and incubated at room temperature for 5 minutes. Transfection reagent (X-tremeGENE HP from Roche, Cat #06 366 236 001) was added to the OptiMEM/plasmid mixture vortexed and incubated at room temperature for 20 minutes. Following incubation, the transfection reagent/DNA mixture complex was added to cells in the T175 flask and the cells were incubated at 37° C. in 5% CO2 for 18 h (O/N).
Compounds were serially diluted in DMSO and added to transfected CV-1 cells. The cells were then incubated for 18 hrs. The next day cells were lysed and examined for luminescence.

Row | Compound | EC50
1 | COCCNC(=O)O[C@H]1CC[C@H](C(=O)N(C[C@H]2CC[C@H](c3ccc(OC)c(C)n3)CC2)c2cc(-c3coc(C4CC4)n3)ccn2)CC1 [Compound 6.56, trans-4-((4-(2-Cyclopropyloxazol-4-yl)pyridine-2-yl)((trans-4-(5-methoxy-6-methylpyridin-2-yl)cyclohexyl)methyl)carbamoyl)cyclohexyl (2-methoxyethyl) carbamate] | ≤ 250 nM
2 | COc1ccc([C@H]2CC[C@H](CN(c3cccc(-c4cnc(C(C)C)s4)c3)C(=O)[C@H]3CC[C@H](CC(=O)O)CC3)CC2)nc1C [Compound 20.07, 2-(trans-4-((3-(2-Isopropylthiazol-5-yl)phenyl)((trans-4-(5-methoxy-6-methylpyridin-2-yl)cyclohexyl)methyl)carbamoyl)cyclohexyl) acetic acid] | ≤ 250 nM
3 | COc1ccc([C@H]2CC[C@H](CN(c3cccc(-c4cnc(C5CC5)s4)c3)C(=O)[C@H]3CC[C@H](NC(=O)COCCN(C)C)CC3)CC2)cc1C [Compound 32.04, trans-N-(3-(2-Cyclopropylthiazol-5-yl)phenyl)-4-(2-(2-(dimethylamino)ethoxy)acetamido)-N-((trans-4-(4-methoxy-3-methylphenyl)cyclohexyl)methyl) cyclohexanecarboxamide] | ≤ 250 nM
4 | CN(C)c1ccc(C23CCC(CN(c4cccc(-c5cnc(C6CC6)s5)c4)C(=O)[C@H]4CC[C@H](C(=O)O)CC4)(CC2)CC3)cn1 [Compound 17.06, trans-4-((3-(2-Cyclopropylthiazol-5-yl)phenyl)((4-(6-(dimethylamino)pyridin-3-yl)bicyclo[2.2.2]octan-1-yl)methyl)carbamoyl) cyclohexanecarboxylic acid] | ≤ 250 nM
5 | COc1ccc(C23CCC(CN(c4cc(-c5coc(C6CC6)n5)ccn4)C(=O)[C@H]4CC[C@H](C(=O)O)CC4)(CC2)CC3)cc1C [Compound 18.03, trans-4-((4-(2-Cyclopropyloxazol-4-yl)pyridin-2-yl)((4-(4-methoxy-3-methylphenyl)bicyclo[2.2.2]octan-1-yl)methyl)carbamoyl) cyclohexanecarboxylic acid] | ≤ 250 nM
6 | CCC(C)(O)CNC(=O)O[C@H]1CC[C@H](C(=O)N(C[C@H]2CC[C@H](c3ccc(OC)c(C)n3)CC2)c2cc(-c3coc(C4CC4)n3)ccn2)CC1 (stereo partly drawn) [Compound 6.69, trans-4-((4-(2-Cyclopropyloxazol-4-yl)pyridin-2-yl)((trans-4-(5-methoxy-6-methylpyridin-2-yl)cyclohexyl)methyl)carbamoyl)cyclohexyl (2-hydroxy-2-methylbutyl)carbamate] | ≤ 250 nM
7 | COc1ccc([C@H]2CC[C@H](CN(c3cc(-c4coc(C(C)C)n4)ccn3)C(=O)[C@H]3CC[C@H](OC(=O)N4CC(O)C4)CC3)CC2)cc1C#N [Compound 7.73, trans-4-(((trans-4-(3-Cyano-4-methoxyphenyl)cyclohexyl)methyl)(4-(2-isopropyloxazol-4-yl)pyridine-2-yl)carbamoyl)cyclohexyl 3-hydroxyazetidine-1-carboxylate] | ≤ 250 nM
8 | CNC(=O)O[C@H]1CC[C@H](C(=O)N(C[C@H]2CC[C@H](c3ccc(OC)c(C#N)c3)CC2)c2cc(-c3cnc(C4CC4)s3)ccn2)CC1 [Compound 5.05, trans-4-(((trans-4-(3-Cyano-4-methoxyphenyl)cyclohexyl)methyl)(4-(2-cyclopropylthiazol-5-yl)pyridin-2-yl)carbamoyl)cyclohexyl methylcarbamate] | ≤ 250 nM
9 | CNC(=O)O[C@H]1CC[C@H](C(=O)N(CC23CCC(c4ccc(OC)c(C)c4)(CC2)CC3)c2cc(-c3cnc(C4CC4)s3)ccn2)CC1 [Compound 2.03, 4-((4-(2-Cyclopropylthiazol-5-yl)pyridin-2-yl)((4-(4-methoxy-3-methylphenyl)bicyclo[2.2.2]octan-1-yl)methyl)carbamoyl)cyclohexyl trans-methylcarbamate] | ≤ 250 nM
10 | COc1ccc([C@H]2CC[C@H](CN(c3cc(-c4coc(C5CC5)n4)ccn3)C(=O)[C@H]3CC[C@H](NC(=O)C4CC(OC)C4)CC3)CC2)nc1C (stereo partly drawn) [Compound 30.03, trans-N-(4-(2-Cyclopropyloxazol-4-yl)pyridin-2-yl)-N-((trans-4-(5-methoxy-6-methylpyridin-2-yl)cyclohexyl)methyl)-4-(3-methoxycyclobutanecarboxamido) cyclohexanecarboxamide] | ≤ 250 nM
11 | COc1ccc([C@H]2CC[C@H](CN(c3cc(-c4coc(C5CC5)n4)ccn3)C(=O)[C@H]3CC[C@H](OC(=O)N(C)CCO)CC3)CC2)nc1C [Compound 6.87, trans-4-((4-(2-Cyclopropyloxazol-4-yl)pyridin-2-yl)((trans-4-(5-methoxy-6-methylpyridin-2-yl)cyclohexyl)methyl)carbamoyl)cyclohexyl (2-hydroxyethyl)(methyl)carbamate] | ≤ 250 nM
12 | COc1ccc([C@H]2CC[C@H](CN(c3cccc(-c4coc(C5CC5)n4)c3)C(=O)[C@H]3CC[C@H](OC(=O)NCCO)CC3)CC2)cc1C [Compound 6.46, trans-4-((3-(2-Cyclopropyloxazol-4-yl)phenyl)((trans-4-(4-methoxy-3-methylphenyl)cyclohexyl)methyl)carbamoyl)cyclohexyl (2-hydroxyethyl) carbamate] | ≤ 250 nM

More lines, now with the values ahead:

Row | EC50 | Compound
13 | ≤ 250 nM | COc1ccc([C@H]2CC[C@H](CN(c3cccc(-c4cnn(C5CC5)c4)c3)C(=O)[C@H]3CC[C@H](C(=O)OCC(C)C)CC3)CC2)cc1C [Compound 22.04, trans-Isobutyl 4-((3-(1-cyclopropyl-1H-pyrazol-4-yl)phenyl)((trans-4-(4-methoxy-3-methylphenyl)cyclohexyl)methyl)carbamoyl) cyclohexanecarboxylate]
14 | 250 to 1000 nM | COc1ccc([C@H]2CC[C@H](CN(c3cccc(-c4cnn(C5CC5)c4)c3)C(=O)[C@H]3CC[C@H](C(=O)OCCC(C)C)CC3)CC2)cc1C [Compound 22.05, trans-Isopentyl 4-((3-(1-cyclopropyl-1H-pyrazol-4-yl)phenyl)((trans-4-(4-methoxy-3-methylphenyl)cyclohexyl)methyl)carbamoyl) cyclohexanecarboxylate]
15 | ≤ 250 nM | COc1ccc([C@H]2CC[C@H](CN(c3cccc(-c4cnn(C5CC5)c4)c3)C(=O)[C@H]3CC[C@H](OC(=O)N4CC(C(=O)O)C4)CC3)CC2)cc1C [Compound 7.35, 1-(((trans-4-((3-(1-Cyclopropyl-1H-pyrazol-4-yl)phenyl)((trans-4-(4-methoxy-3-methylphenyl)cyclohexyl)methyl)carbamoyl)cyclohexyl)oxy)carbonyl)azetidine-3-carboxylic acid]
16 | ≤ 250 nM | CNC(=O)O[C@H]1CC[C@H](C(=O)N(C[C@H]2CC[C@H](c3ccc(OC)c(C#N)n3)CC2)c2cccc(-c3cnn(C4CC4)c3)c2)CC1 [Compound 5.23, trans-4-(((trans-4-(6-Cyano-5-methoxypyridin-2-yl)cyclohexyl)methyl)(3-(1-cyclopropyl-1H-pyrazol-4-yl)phenyl)carbamoyl)cyclohexyl methylcarbamate]
17 | ≤ 250 nM | COc1ccc([C@H]2CC[C@H](CN(c3cccc(-c4cnn(C5CC5)c4)c3)C(=O)[C@H]3CC[C@H](OC(=O)NCCN)CC3)CC2)cc1C [Compound 4.16, trans-4-((3-(1-Cyclopropyl-1H-pyrazol-4-yl)phenyl)((trans-4-(4-methoxy-3-methylphenyl)cyclohexyl)methyl)carbamoyl)cyclohexyl (2-aminoethyl)carbamate]

— US20220089575A1, “FARNESOID X RECEPTOR AGONISTS AND USES THEREOF” (Metacrine, Inc., priority 2017, published 2022)
